Measured values from patent US8802661B2, “C-28 amides of modified C-3 betulinic acid derivatives as HIV maturation inhibitors” (priority 2010, dated 2014).
pEC50: −log10 of the molar value. Read-outs that look alike come from different tables or passages of the source.

Test system: recombinant NL4-3 virus (Renilla luciferase in nef, Gag P373S)
Test: HIV Cell Culture Assay (luciferase reporter virus in MT-2 cells)
Type: cell-based
Procedure: MT-2 cells and 293T cells were obtained from the NIH AIDS Research and Reference Reagent Program. MT-2 cells were propagated in RPMI 1640 media supplemented with 10% heat inactivated fetal bovine serum, […]. The 293T cells were propagated in DMEM media supplemented with 10% heat inactivated fetal bovine serum (FBS), 100 units/ml penicillin G and 100 μg/ml streptomycin. The proviral DNA clone of NL4-3 was obtained from the NIH AIDS Research and Reference Reagent Program. A recombinant NL4-3 virus, in which a section of the nef gene from NL4-3 was replaced with the Renilla luciferase gene, was used as a reference virus. In addition, residue Gag P373 was converted to P373S. Briefly, the recombinant virus was prepared by transfection of the altered proviral clone of NL4-3. Transfections were performed in 293T cells using LipofectAMINE PLUS from Invitrogen (Carlsbad, Calif.), according to manufacturer's instruction. The virus was titered in MT-2 cells using luciferase enzyme activity as a marker. Luciferase was quantitated using the Dual Luciferase kit from Promega (Madison, Wis.), with modifications to the manufacturer's protocol. The diluted Passive Lysis solution was pre-mixed with the re-suspended Luciferase Assay Reagent and the re-suspended Stop & Glo Substrate (2:1:1 ratio). Fifty (50) μL of the mixture was added to each aspirated well on assay plates and luciferase activity was measured immediately on a Wallac TriLux (Perkin-Elmer). Antiviral activities of inhibitors toward the recombinant virus were quantified by measuring luciferase activity in cells infected for 4-5 days with NLRluc recombinants in the presence serial dilutions of the inhibitor. Table 1 is the key for the data in Table 2.

SMILES	pEC50 (NL43, read-out: EC50 Group)	pEC50 (NL43)
C=C(C)[C@@H]1CC[C@]2(C(=O)N(C)CCN(C)C)CC[C@]3(C)[C@H](CC[C@@H]4[C@@]5(C)CC=C(c6ccc(C(=O)O)cc6)C(C)(C)[C@@H]5CC[C@]43C)[C@@H]12 [Example 31, 4-((1R,3aS,5aR,5bR,7aR,11aS,11bR,13aR,13bR)-3a-((2-(dimethylamino)ethyl)(methyl)carbamoyl)-5a,5b,8,8,11a-pentamethyl-1-(prop-1-en-2-yl)-2,3,3a,4,5,5a,5b,6,7,7a,8,11,11a,11b,12,13,13a,13b-octadecahydro-1H-cyclopenta[a]chrysen-9-yl)benzoic acid]	> 7.00	
C=C(C)[C@@H]1CC[C@]2(C(=O)NCCCN3CCOCC3)CC[C@]3(C)[C@H](CC[C@@H]4[C@@]5(C)CC=C(c6ccc(C(=O)O)cc6)C(C)(C)[C@@H]5CC[C@]43C)[C@@H]12 [Example 32, 4-((1R,3aS,5aR,5bR,7aR,11aS,11bR,13aR,13bR)-5a,5b,8,8,11a-pentamethyl-3a-(3-morpholinopropylcarbamoyl)-1-(prop-1-en-2-yl)-2,3,3a,4,5,5a,5b,6,7,7a,8,11,11a,11b,12,13,13a,13b-octadecahydro-1H-cyclopenta[a]chrysen-9-yl)benzoic acid]	> 7.00	
C=C(C)[C@@H]1CC[C@]2(C(=O)NCCN3CCCCC3)CC[C@]3(C)[C@H](CC[C@@H]4[C@@]5(C)CC=C(c6ccc(C(=O)O)cc6)C(C)(C)[C@@H]5CC[C@]43C)[C@@H]12 [Example 33, 4-((1R,3aS,5aR,5bR,7aR,11aS,11bR,13aR,13bR)-5a,5b,8,8,11a-pentamethyl-3a-(2-(piperidin-1-yl)ethylcarbamoyl)-1-(prop-1-en-2-yl)-2,3,3a,4,5,5a,5b,6,7,7a,8,11,11a,11b,12,13,13a,13b-octadecahydro-1H-cyclopenta[a]chrysen-9-yl)benzoic acid]	> 7.00	
C=C(C)[C@@H]1CC[C@]2(C(=O)NCC(N)=O)CC[C@]3(C)[C@H](CC[C@@H]4[C@@]5(C)CC=C(c6ccc(C(=O)O)cc6)C(C)(C)[C@@H]5CC[C@]43C)[C@@H]12 [Example 34, 4-((1R,3aS,5aR,5bR,7aR,11aS,11bR,13aR,13bR)-3a-(2-amino-2-oxoethylcarbamoyl)-5a,5b,8,8,11a-pentamethyl-1-(prop-1-en-2-yl)-2,3,3a,4,5,5a,5b,6,7,7a,8,11,11a,11b,12,13,13a,13b-octadecahydro-1H-cyclopenta[a]chrysen-9-yl)benzoic acid]	> 7.00	
C=C(C)[C@@H]1CC[C@]2(C(=O)NCC(c3cccnc3)N(C)C)CC[C@]3(C)[C@H](CC[C@@H]4[C@@]5(C)CC=C(c6ccc(C(=O)O)cc6)C(C)(C)[C@@H]5CC[C@]43C)[C@@H]12 (stereo partly drawn) [Example 35, 4-((1R,3aS,5aR,5bR,7aR,11aS,11bR,13aR,13bR)-3a-(2-(dimethylamino)-2-(pyridin-3-yl)ethylcarbamoyl)-5a,5b,8,8,11a-pentamethyl-1-(prop-1-en-2-yl)-2,3,3a,4,5,5a,5b,6,7,7a,8,11,11a,11b,12,13,13a,13b-octadecahydro-1H-cyclopenta[a]chrysen-9-yl)benzoic acid]	> 7.00	
C=C(C)[C@@H]1CC[C@]2(C(=O)NCCN3CCN(C)CC3)CC[C@]3(C)[C@H](CC[C@@H]4[C@@]5(C)CC=C(c6ccc(C(=O)O)cc6)C(C)(C)[C@@H]5CC[C@]43C)[C@@H]12 [Example 36, 4-((1R,3aS,5aR,5bR,7aR,11aS,11bR,13aR,13bR)-5a,5b,8,8,11a-pentamethyl-3a-(2-(4-methylpiperazin-1-yl)ethylcarbamoyl)-1-(prop-1-en-2-yl)-2,3,3a,4,5,5a,5b,6,7,7a,8,11,11a,11b,12,13,13a,13b-octadecahydro-1H-cyclopenta[a]chrysen-9-yl)benzoic acid]	> 7.00	
C=C(C)[C@@H]1CC[C@]2(C(=O)NCCN3CCN(C(=O)OC(C)(C)C)CC3)CC[C@]3(C)[C@H](CC[C@@H]4[C@@]5(C)CC=C(c6ccc(C(=O)O)cc6)C(C)(C)[C@@H]5CC[C@]43C)[C@@H]12 [Example 37, 4-((1R,3aS,5aR,5bR,7aR,11aS,11bR,13aR,13bR)-3a-(2-(4-(tert-butoxycarbonyl)piperazin-1-yl)ethylcarbamoyl)-5a,5b,8,8,11a-pentamethyl-1-(prop-1-en-2-yl)-2,3,3a,4,5,5a,5b,6,7,7a,8,11,11a,11b,12,13,13a,13b-octadecahydro-1H-cyclopenta[a]chrysen-9-yl)benzoic acid]	> 7.00	
C=C(C)[C@@H]1CC[C@]2(C(=O)NCC(C)(C)N)CC[C@]3(C)[C@H](CC[C@@H]4[C@@]5(C)CC=C(c6ccc(C(=O)O)cc6)C(C)(C)[C@@H]5CC[C@]43C)[C@@H]12 [Example 38, 4-((1R,3aS,5aR,5bR,7aR,11aS,11bR,13aR,13bR)-3a-(2-amino-2-methylpropylcarbamoyl)-5a,5b,8,8,11a-pentamethyl-1-(prop-1-en-2-yl)-2,3,3a,4,5,5a,5b,6,7,7a,8,11,11a,11b,12,13,13a,13b-octadecahydro-1H-cyclopenta[a]chrysen-9-yl)benzoic acid]	> 7.00	
C=C(C)[C@@H]1CC[C@]2(C(=O)NCC3CCCN3CC)CC[C@]3(C)[C@H](CC[C@@H]4[C@@]5(C)CC=C(c6ccc(C(=O)O)cc6)C(C)(C)[C@@H]5CC[C@]43C)[C@@H]12 (stereo partly drawn) [Example 39, 4-((1R,3aS,5aR,5bR,7aR,11aS,11bR,13aR,13bR)-3a-((1-ethylpyrrolidin-2-yl)methylcarbamoyl)-5a,5b,8,8,11a-pentamethyl-1-(prop-1-en-2-yl)-2,3,3a,4,5,5a,5b,6,7,7a,8,11,11a,11b,12,13,13a,13b-octadecahydro-1H-cyclopenta[a]chrysen-9-yl)benzoic acid]	> 7.00	
C=C(C)[C@@H]1CC[C@]2(C(=O)NCc3nc4ccccc4[nH]3)CC[C@]3(C)[C@H](CC[C@@H]4[C@@]5(C)CC=C(c6ccc(C(=O)O)cc6)C(C)(C)[C@@H]5CC[C@]43C)[C@@H]12 [Example 40, 4-((1R,3aS,5aR,5bR,7aR,11aS,11bR,13aR,13bR)-3a-((1H-benzo[d]imidazol-2-yl)methylcarbamoyl)-5a,5b,8,8,11a-pentamethyl-1-(prop-1-en-2-yl)-2,3,3a,4,5,5a,5b,6,7,7a,8,11,11a,11b,12,13,13a,13b-octadecahydro-1H-cyclopenta[a]chrysen-9-yl)benzoic acid]	> 7.00	
C=C(C)[C@@H]1CC[C@]2(C(=O)NCc3nccs3)CC[C@]3(C)[C@H](CC[C@@H]4[C@@]5(C)CC=C(c6ccc(C(=O)O)cc6)C(C)(C)[C@@H]5CC[C@]43C)[C@@H]12 [Example 41, 4-((1R,3aS,5aR,5bR,7aR,11aS,11bR,13aR,13bR)-5a,5b,8,8,11a-pentamethyl-1-(prop-1-en-2-yl)-3a-(thiazol-2-ylmethylcarbamoyl)-2,3,3a,4,5,5a,5b,6,7,7a,8,11,11a,11b,12,13,13a,13b-octadecahydro-1H-cyclopenta[a]chrysen-9-yl)benzoic acid]	> 7.00	
C=C(C)[C@@H]1CC[C@]2(C(=O)NCc3cccs3)CC[C@]3(C)[C@H](CC[C@@H]4[C@@]5(C)CC=C(c6ccc(C(=O)O)cc6)C(C)(C)[C@@H]5CC[C@]43C)[C@@H]12 [Example 42, 4-((1R,3aS,5aR,5bR,7aR,11aS,11bR,13aR,13bR)-5a,5b,8,8,11a-pentamethyl-1-(prop-1-en-2-yl)-3a-(thiophen-2-ylmethylcarbamoyl)-2,3,3a,4,5,5a,5b,6,7,7a,8,11,11a,11b,12,13,13a,13b-octadecahydro-1H-cyclopenta[a]chrysen-9-yl)benzoic acid]		6.92
